The nature of data set [1]: Gel formation in buffer solution and chloroform. In kind it is physicochemical. Particulars: 10 mM in 0.6 M sodium phosphate buffer pH 8, no enzyme.
For the next data set, the target named is T1, alkaline phosphatase (Bos taurus, UniProt P19111).
T1 construct: purchased Sigma Aldrich; host or cells: Pichia pastoris
The data set is described as follows: Dephosphorylation of Fmoc-YpL to Fmoc-YL by alkaline phosphatase (reversed phase HPLC). In kind it is biochemical, bovine. As to conditions: 10 mM, buffer pH 8. As for the experimental part:
Enzymatic Conversion of Fmoc-YpL to Fmoc-YL.
Fmoc-Tyr(PO(NMe2)2-OH (537.55 g·mol^−1) was purchased from Novabiochem. Fmoc-Tyr-OH (403.43 g·mol^−1), L-Leucine tert-butyl hydrochloride (223.74 g·mol^−1) and alkaline phosphatase from bovine, expressed in Pichia pastoris (5000 U·mg^−1protein, 20 mgprotein·mL^−1, 0.049 mL, Apparent molar weight 160 kDa) were supplied by Sigma Aldrich. One enzyme unit corresponds to the quantity of alkaline phosphatase hydrolysing 1 μmol of 4-nitrophenyl phosphate per minute at pH 9.8 and 37° C.
10 mM of synthesised Fmoc-YpL was prepared in 950 μL of 0.6 M sodium phosphate buffer pH 8 and immediately added 50 μL of alkaline phosphatase (0.0555 U·μL^−1, or 55.53 U·mL^−1 enzymatic concentration), vortexed and subject to ultra sounds at room temperature. All characterisation was done after 24 hours except when stated otherwise. For the Fmoc-YpL precursor, the preparation was the same except no enzyme was added.

The nature of data set [2]: Partitioning of peptides between water, chloroform and the water/chloroform interface (UV-Vis). In kind it is physicochemical. As to conditions: water/chloroform biphasic system. The source says:
(the volume ratio of buffer solution to chloroform is altered from 1:9, 3:7, 5:5, 7:3, to 9:1), after manual agitation for 5 seconds emulsions form in vials, as FIG. 2a shown. […] In the images shown, the milky layers are emulsions and the transparent layers above and below are the aqueous and chloroform phase, respectively. UV-Vis was used to determine the amount of Fmoc-YL that remained in water phase and transferred to chloroform. Fluorescein isothiocyanate (FITC) was used to label the aqueous phase in the emulsion layers for imaging by fluorescence microscopy.
High resolution mass spectra (HRMS) were recorded on a Thermo Electron Exactive. 400.1 (1H) NMR spectra were recorded on Brucker Avance 400 spectrometer at room temperature using perdeuterated solvents as internal standards. The emulsion droplets were characterized by fluorescence microscopy. The devices were mounted on an inverted microscope (AXIO Observer A1, Zeiss) and images were acquired using a EMCCD LucaR camera (Andor Technologies). Images (using brightfield and fluorescence microscopy) were acquired using Zeiss ×20 dry objective and the appropriate filter set for the fluorophore being imaged. Image was analyzed using ImageJ.

A short description of data set [3]: Emulsion formation by aromatic peptide amphiphiles (fluorescence microscopy, FITC label). As to conditions: chloroform / phosphate buffer pH 8; 10 mM peptide. Type of data set: physicochemical. The method, then:
(§1) (the volume ratio of buffer solution to chloroform is altered from 1:9, 3:7, 5:5, 7:3, to 9:1, total volume was always 1 mL), after hand-shaking for 5 seconds emulsions form in vials. For SEM, IR, stability, average particle size, critical emulsion concentration and demulsification measurements, the volume ratio of buffer solution to chloroform was fixed at 7:3. The concentration of all aromatic peptide amphiphiles studied (Fmoc-YA, Fmoc-YS, Pyr-YL, Fmoc-FF and Fmoc-FFF) was 10 mM, except for in the determination of the critical emulsion concentration (0.1-10 mM) and demulsification measurements (2 mM).

Data set [4] is classed as physicochemical. As for the experimental part:
To further increase the hydrophobicity, di- and tri-phenylalanine were tested as the peptide sequences (Fmoc-FF and Fmoc-FFF). […] Replacing the Fmoc group with pyrene, amphiphiles and the emulsion systems are inherently endowed with fluorescent properties. […] There is the clear expectation, based upon the results presented that it should be possible to change the peptide sequences and aromatic moieties to further to optimize and functionalize the emulsion systems.

Data set [5] can be described thus: Stability of chloroform-in-water emulsions (time, heat, salts) versus SDS. In kind it is physicochemical. Particulars: 10 mM. As for the experimental part:
The top images show freshly prepared emulsions and the bottom images show emulsions incubated for 2 weeks. […] The top images show freshly prepared emulsions and the bottom images show emulsions heated at 60° C. for 3 hours. […] The top images show freshly prepared emulsions and the bottom images show emulsions incubated for 24 hours.
as §1

The target in a further data set is T2, thermolysin (Bacillus thermoproteolyticus, UniProt P00800).
T2 sequence (P00800 233-548): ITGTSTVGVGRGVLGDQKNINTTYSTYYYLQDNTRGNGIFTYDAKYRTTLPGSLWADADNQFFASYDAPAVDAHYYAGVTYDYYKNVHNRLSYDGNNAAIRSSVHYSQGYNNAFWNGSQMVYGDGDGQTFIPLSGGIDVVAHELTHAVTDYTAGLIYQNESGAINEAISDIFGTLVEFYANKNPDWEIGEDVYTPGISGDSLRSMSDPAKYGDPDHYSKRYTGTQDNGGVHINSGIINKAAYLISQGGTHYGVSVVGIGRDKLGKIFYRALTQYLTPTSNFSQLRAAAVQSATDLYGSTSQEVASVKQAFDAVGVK
The data set is described as follows: Enzymatic demulsification of emulsions by thermolysin. In kind it is biochemical.
Text: Scale bar is 50 μm. […] (c) Optical photographs of vials in which emulsions formed (left) and demulsified (right) in addition of thermolysin.
Another vital advantage of using peptide self-assembly to stabilize the emulsion systems is the ability to digest the stabilizing film using a suitable enzyme. Proteases, the enzymes that cleave peptide bonds cause disassembly of amphiphiles.
as §1

Residues, ends and D or L forms follow the SMILES beside them. *: point of attachment. Fmoc = O=C(OCC1c2ccccc2-c2ccccc21)*

T1 sequence (P19111 20-506): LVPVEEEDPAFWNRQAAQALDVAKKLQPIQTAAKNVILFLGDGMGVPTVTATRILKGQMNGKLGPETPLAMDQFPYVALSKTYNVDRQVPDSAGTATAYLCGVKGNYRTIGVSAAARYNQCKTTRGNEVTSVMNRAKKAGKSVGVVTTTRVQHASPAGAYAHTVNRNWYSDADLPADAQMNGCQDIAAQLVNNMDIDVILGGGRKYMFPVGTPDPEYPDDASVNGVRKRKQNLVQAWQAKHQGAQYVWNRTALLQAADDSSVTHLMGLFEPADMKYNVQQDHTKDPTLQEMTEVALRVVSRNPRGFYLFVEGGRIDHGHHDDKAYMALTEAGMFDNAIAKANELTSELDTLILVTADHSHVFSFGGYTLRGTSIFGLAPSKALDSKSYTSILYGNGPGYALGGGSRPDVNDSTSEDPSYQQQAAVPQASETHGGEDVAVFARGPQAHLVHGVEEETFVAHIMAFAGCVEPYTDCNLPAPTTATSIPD

As to “Fmoc-tyrosine phosphate-leucine [Fmoc-YpL]”, the “gel formation of precursor solution” value in data set [1] is “not able to form a gel”. The “time to complete conversion to Fmoc-YL” value at alkaline phosphatase is at most 24 h. The “Fmoc-YpL converted into Fmoc-YL” value at alkaline phosphatase (after 2 hours) is on record as “approximately 90%”. Besides, in data set [2], the “Remain in water (%)” value was 31.03%, the “Transfer to chloroform (%)” value was found to be 0.74% and the “Transfer to interface (%)” value was found to be 68.23%.
On to `O=C(N[C@@H](Cc1ccccc1)C(=O)N[C@@H](Cc1ccccc1)C(=O)N[C@@H](Cc1ccccc1)C(=O)O)OCC1c2ccccc2-c2ccccc21` [Fmoc-FFF, Fmoc-Phe-Phe-Phe-OH] (Fmoc-Phe-Phe-Phe-OH), for which the “type of emulsion formed” value in data set [3] was “formation of water-in-chloroform emulsions”. In data set [4], the solubility in chloroform result was “do dissolve in chloroform” and the “solubility in the water phase” value was “too hydrophobic to dissolve in the water phase”.
Regarding `CCCCCCCCCCCCOS(=O)(=O)[O-].[Na+]` [SDS, sodium dodecyl sulfate], the “emulsion state after 24 h in salt solution” value in data set [5] (100 mM phosphate, chloride and thiocyanate solution) is “phase-separated”. The “emulsion state after two weeks at room temperature” value in data set [5] (chloroform-in-water) is “demulsified and phase-separated”.
For the compound Fmoc-tyrosine-leucine [Fmoc-YL], the “time for droplets to demulsify and coalesce to bigger droplets after adding thermolysin” value at thermolysin (1 mg·mL^−1 thermolysin, 2 mmol·L^−1 Fmoc-YL) came to 60 s. Moreover, the “conversion of cleaving reaction catalyzed by thermolysin (HPLC)” value on thermolysin (after 10 minutes, aqueous media) is given as 50%.

(Values after patent publication US20170188618A1, “STABLE EMULSIONS FROM DIPEPTIDE DERIVATIVES” (UNIVERSITY OF STRATHCLYDE, priority 2014, published 2017).)
